Consider one compound from patent US20200016076A1, “COMPOSITION FOR THE TREATMENT OF DUCHENNE MUSCULAR DYSTROPHY” (Summit (Oxford) Limited, priority 2016, published 2020).

A short description of series [1]: Gravimetric vapour sorption analysis. The series is classed as physicochemical. An excerpt: Form I was subjected to gravimetric vapour sorption analysis, ramping profile from 0 to 90% RH at 10% RH increments.
For series [2], the system named is mouse models of DMD. The following applies: with corticosteroids including prednisone, prednisolone and deflazacort; WO2009/019504; cited from earlier work.
A short description of series [3]: Solubility of ezutromid Form I polymorph in pharmaceutically-acceptable solvents at 20° C. (HPLC of saturated solutions). The series is classed as physicochemical. The following applies: 1-propanol; 4 hours equilibration. As to the method: In each case, about 25 mg of drug substance was allowed to equilibrate with 250 μL of solvent over 4 hours. The resulting saturated solutions were filtered and analysed by HPLC.

SMILES strings stand for the structures. In brackets after ≈: the same amount, converted by molar mass.

With `CCS(=O)(=O)c1ccc2oc(-c3ccc4ccccc4c3)nc2c1` [ezutromid, 5-(ethylsulfonyl)-2-(naphthalen-2-yl)benzo[d]oxazole], in series [1] (based on gravimetric vapour sorption), the Hygroscopicity result was “not hygroscopic”. Further, the Moisture absorbed result in series [1] (up to 90% RH, 0 to 90% RH at 10% RH increments) was “no more than 0.25 % by weight”. Also, in series [2], the “Reduction of exercise-induced fatigue with corticosteroids” value was “acts in synergy with corticosteroids”. Besides, the “Solubility at 20° C.” value in series [3] is 790 µg/mL (≈ 2340 µM).
